In ChEMBL document CHEMBL1146646, “Benzimidazoles as new potent and selective DP antagonists for the treatment of allergic rhinitis” (Bioorg Med Chem Lett, 2004) one finds Ki data, which are given here for 25 molecules.

Molecules are shown by their SMILES.

One experiment deals with T1, Thromboxane A2 receptor (Homo sapiens, UniProt P21731).
T1 sequence (P21731 whole entry): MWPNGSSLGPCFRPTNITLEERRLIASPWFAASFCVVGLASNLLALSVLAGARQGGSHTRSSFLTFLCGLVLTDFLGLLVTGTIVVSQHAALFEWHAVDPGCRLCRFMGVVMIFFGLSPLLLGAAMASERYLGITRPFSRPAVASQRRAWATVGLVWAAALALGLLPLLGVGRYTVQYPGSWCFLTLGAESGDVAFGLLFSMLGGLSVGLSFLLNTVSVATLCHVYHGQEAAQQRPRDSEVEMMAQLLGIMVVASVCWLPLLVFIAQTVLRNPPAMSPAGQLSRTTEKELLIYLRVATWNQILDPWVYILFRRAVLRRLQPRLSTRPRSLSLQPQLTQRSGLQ
Briefly: Binding affinity against human recombinant Thromboxane A2 receptor was determined using radioligand competition binding assay. A general note: Loss of bound radioactivity is the signal in a displacement assay; it reports binding, not function.

Experiment [1] concerns the target T2, Prostaglandin D2 receptor (Homo sapiens, UniProt Q13258).
T2 sequence (Q13258 whole entry): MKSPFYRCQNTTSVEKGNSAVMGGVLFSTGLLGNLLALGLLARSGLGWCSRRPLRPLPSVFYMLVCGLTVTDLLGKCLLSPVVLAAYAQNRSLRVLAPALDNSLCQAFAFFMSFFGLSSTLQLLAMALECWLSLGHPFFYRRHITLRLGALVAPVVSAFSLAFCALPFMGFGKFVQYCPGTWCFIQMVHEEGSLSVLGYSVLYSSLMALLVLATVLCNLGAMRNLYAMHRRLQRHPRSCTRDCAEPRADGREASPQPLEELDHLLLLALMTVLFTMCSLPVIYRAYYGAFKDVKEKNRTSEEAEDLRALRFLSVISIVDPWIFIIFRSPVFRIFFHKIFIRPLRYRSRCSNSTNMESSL
Briefly: Binding affinity against human recombinant […] D2 was determined using radioligand competition binding assay.

The target of experiment [2] is T2, Prostaglandin D2 receptor. In words: Binding affinity against human recombinant […] D2 in presence of 0.5% human serum albumin.

One may read the Ki as the dissociation constant of the complex between target and ligand, obtained from inhibition or displacement. As for `CCOC(=O)c1cc(CSc2nc3ccccc3n2Cc2ccc(Cl)cc2)cc(C(=O)OCC)c1`, the Ki is greater than 71000 nM on Thromboxane A2 receptor and greater than 43000 nM in experiment [1].
On to `CSc1ccc(CSc2nc3ccccc3n2Cc2ccc(Cl)cc2)cc1`, for which the Ki is greater than 73000 nM on Thromboxane A2 receptor and 550 nM in experiment [1].
The matching figures for `COC(=O)c1cccc(CSc2nc3ccccc3n2Cc2ccc(Cl)cc2)c1`: 9300 nM and 1100 nM.
The matching figures for `CC(C)(O)c1ccc(CSc2nc3ccccc3n2Cc2ccc(Cl)cc2)cc1`: 11900 nM and 140 nM.
As to `COC(=O)c1ccc(C[S+]([O-])c2nc3ccccc3n2Cc2ccc(Cl)cc2)cc1` (configuration not stated), the Ki is 3100 nM at Thromboxane A2 receptor, 550 nM in experiment [1] and 1500 nM in experiment [2].
The matching figures for `COC(=O)c1ccc(-c2nc3ccccc3n2Cc2ccc(Cl)cc2)cc1`: 7000 nM, 8000 nM and 800 nM.
On the same counts, the results for `COC(=O)c1ccc(CCc2nc3ccccc3n2Cc2ccc(Cl)cc2)cc1` are 2200 nM, 24 nM and 137 nM.
Take `NS(=O)(=O)c1ccc(CSc2nc3ccccc3n2Cc2ccc(Cl)cc2)cc1`: the Ki is greater than 70000 nM on Thromboxane A2 receptor and 1200 nM in experiment [1].
The matching figures for `COC(=O)c1ccc(CNc2nc3ccccc3n2Cc2ccc(Cl)cc2)cc1`: 6000 nM and 1100 nM.
On the same counts, the results for `CC(O)c1ccc(CSc2nc3ccccc3n2Cc2ccc(Cl)cc2)cc1` (configuration not stated) are 1500 nM and 270 nM.
On the same counts, the results for `Fc1ccc(CSc2nc3ccccc3n2Cc2ccc(Cl)cc2)cc1` are 6100 nM and greater than 42000 nM.
`CC(=O)c1ccc(CSc2nc3ccccc3n2Cc2ccc(Cl)cc2)cc1`: the Ki is 3800 nM at Thromboxane A2 receptor and 300 nM in experiment [1].
Take `Cc1nc(-c2ccc(CSc3nc4ccccc4n3Cc3ccc(Cl)cc3)cc2)no1`: the Ki on Thromboxane A2 receptor was greater than 74000 nM; in experiment [1] it was 96 nM.
For the molecule `COC(=O)Cc1ccc(CSc2nc3ccccc3n2Cc2ccc(Cl)cc2)cc1`, the Ki on Thromboxane A2 receptor was 1500 nM; in experiment [1] it was 330 nM.
Turning to `O=C(O)c1ccc(CSc2nc3ccccc3n2Cc2ccc(Cl)cc2)cc1`, the values for the Ki (on Thromboxane A2 receptor; in experiment [1]) were 4700 nM and 3500 nM, respectively.
The matching figures for `CN(C)C(=O)c1ccc(CSc2nc3ccccc3n2Cc2ccc(Cl)cc2)cc1`: 2000 nM and 800 nM.
For `COC(=O)c1ccc(Nc2nc3ccccc3n2Cc2ccc(Cl)cc2)cc1`, the Ki was 900 nM at Thromboxane A2 receptor, 1500 nM in experiment [1] and 5400 nM in experiment [2].
As to `FC(F)(F)c1ccc(CSc2nc3ccccc3n2Cc2ccc(Cl)cc2)cc1`, the values for the Ki (on Thromboxane A2 receptor; in experiment [1]) were greater than 73000 nM and 2600 nM, respectively.
The matching figures for `Clc1ccc(Cn2c(SCc3ccccc3)nc3ccccc32)cc1`: 4200 nM and 6700 nM.
The matching figures for `N#Cc1ccc(CSc2nc3ccccc3n2Cc2ccc(Cl)cc2)cc1`: 950 nM and 4200 nM.
In the case of `COC(=O)c1ccc(/C=C/c2nc3ccccc3n2Cc2ccc(Cl)cc2)cc1`, the values for the Ki (on Thromboxane A2 receptor; in experiment [1]; in experiment [2]) were greater than 75000 nM, 38 nM and 67 nM, respectively.
Regarding `Cc1noc(-c2ccc(CSc3nc4ccccc4n3Cc3ccc(Cl)cc3)cc2)n1`, the values for the Ki (on Thromboxane A2 receptor; in experiment [1]) were greater than 74000 nM and 310 nM, respectively.
`COC(=O)c1ccc(Cc2nc3ccccc3n2Cc2ccc(Cl)cc2)cc1`: the results for the Ki (at Thromboxane A2 receptor; in experiment [1]; in experiment [2]) were 4000 nM, 6200 nM and greater than 12000 nM, respectively.
Take `CS(=O)(=O)c1ccc(CSc2nc3ccccc3n2Cc2ccc(Cl)cc2)cc1`: the Ki is 2000 nM at Thromboxane A2 receptor and 1100 nM in experiment [1].
Turning to `COC(=O)c1ccc(CSc2nc3ccccc3n2Cc2ccc(Cl)cc2)cc1`, the Ki at Thromboxane A2 receptor turned out to be 9100 nM; in experiment [1], 73 nM; in experiment [2], 297 nM.
